{"source": "patent US20050004029A1", "about": "“Methods and compositions for treating vascular leak using hepatocyte growth factor” (priority 2001, published 2005)", "key": {"human endothelial cells": {"tested_on": "human endothelial cells", "assay": "β-catenin immunofluorescent microscopy", "format": "cell-based", "conditions": "HGF-stimulated cells", "description": "(§1) Endothelial cell monolayers grown on gelatinized cover slips were rinsed with M199 and incubated with agonists in the same medium in a 37° C. incubator (5% CO2). Monolayers were then rinsed with PBS (3×2 min), fixed in 4% paraformaldehyde for 10 min, again rinsed with PBS (3×2 min), and permeabilized with 0.25% Triton X-100 for 5 min. Cells were then washed briefly with PBS (3×2 min), blocked with PBS containing 2% BSA for 30 min and incubated with 1 Unit/mL of Texas Red-X phalloidin (Molecular Probes, Eugene, Oreg.), β-catenin antibody (Transduction Laboratories, Lexington, Ky.), glycogen synthase kinase-3 β (GSK-3β) (Santa Cruz Biotechnology, Inc., Santa Cruz, Calif.), or mono-phosphorylated MLC antisera (see Garcia, J. G. N. et al. (2001) J. Clin. Invest. 108:689-711) for 1 hr. After washing with PBS (3×2 min), cover slips were mounted on slides using SlowFade mounting medium (Molecular Probes). Cells were analyzed using a 60× oil objective on a Nikon Eclipse TE 300 microscope. Images were captured by Sony Digital Photo camera DKC 5000. The same exposure time was applied to all samples within one experiment. […]"}, "GSK3β": {"tested_on": "GSK3β", "assay": "GSK3β Ser9 phosphorylation by western immunoblot", "format": "cell-based, human", "conditions": "after HGF treatment", "description": "(§2) Endothelial cell monolayers grown to confluence in 12-well plates and challenged with HGF were lysed with 100 μl of 2×SDS sample buffer, and cell lysates were transferred into microcentrifuge tubes and boiled for 5 min. After a brief spin, proteins from 10 μl cell lysates were separated on 12% SDS-PAGE and transferred to nitrocellulose (Schleicher & Schuell, Keene, N.H.) (30V, 18 h). After blocking with PBST (PBS with 0.1% Tween 20) containing 5% non-fat milk for 1 hr, nitrocellulose blots were reacted with primary antibodies diluted in PBST containing 5% BSA for 1 hr, washed with PBST (3×10 min), incubated with peroxidase-conjugated secondary antibodies (goat anti-rabbit IgG, 1:10,000 dilution, Sigma; or goat anti-mouse IgG, 1:10,000 dilution, Bio-Rad Labs, Richmond, Calif.) diluted in PBST with 5% non-fat milk for 1 hr and again washed with PBST (3×10 min). Finally, immunoreactive proteins were detected using ECL. The relative intensities of the protein bands were quantified by scanning densitometry.\nHGF has been reported to increase the phosphorylation status of GSK3β, a multi-functional enzyme involved in glycogen synthesis and protein synthesis regulation activity in mammary epithelial cells (Papkoff, J. and Aikawa, M. (1998) Biochem. Biophys. Res. Commun. 247:851-858). Of potential importance to barrier regulation, GSK3β phosphorylation results in enzymatic inactivation and increases the level of uncomplexed cellular β-catenin (Papkoff, J. (1997) J. Biol. Chem. 272(7):4536-4543). […] Concomitant with HGF-induced TER augmentation, increases in phosphorylation of GSK3β after HGF treatment was detected by increased immunofluorescence and prominent by Western blotting at 2 min, with peak intensity leveling off at 15-30 min, although remaining above basal levels for more than 2 hr. […]"}, "[1]": {"tested_on": "human endothelial monolayers", "assay": "F-actin immunofluorescent microscopy (cortical actin ring)", "format": "cell-based", "conditions": "HGF 20 ng/ml", "description": "as §1, with “5000.” for “5000. The same exposure time was applied to all samples within one experiment.”\nThe effect of HGF on the spatial localization of polymerized actin in human endothelial monolayers was investigated by immunofluorescent microscopy. […] F-actin staining was assessed with Texas red phalloidin and myosin light chain staining evaluated with anti-monophosphorylated myosin light chain polyclonal antibody."}, "PI-3′ kinase": {"tested_on": "PI-3′ kinase", "assay": "Akt phosphorylation by western immunoblotting (PI-3′ kinase activity)", "format": "cell-based", "description": "as §2\nTo identify key signaling mediators involved in HGF-induced barrier protection, the role of PI-3′-kinase in HGF-stimulated barrier improvement was examined by measuring HGF-dependent phosphorylation of the serine/threonine kinase, Akt, a well-accepted method of defining PI-3′ kinase activity. Cell homogenates were analyzed by western immunoblotting with anti-phospho-Akt[…] antibody. When endothelial monolayers were incubated with HGF (20 ng/ml) for increasing amounts of time (1, 2, 5, 10, 15, 20, 30, 60, or 120 minutes), AKT is rapidly phosphorylated beginning at 2 min with maximal effect plateauing by 5-30 min. When the cells are incubated for 15 minutes with increasing concentrations of HGF (0.5, 1, 2, 5, 10, 20, 50 or 100 ng/ml), activation was […] in response to concentrations as low as 5 ng/ml. […]"}}, "data": [{"substance": "HGF: heparin-binding glycoprotein, multifunctional cytokine, ligand of c-Met; purchased from R&D Systems", "values": [{"measurement": "β-catenin immunoreactivity", "setting": "human endothelial cells", "result": "increased β-catenin immunoreactivity along cell borders"}, {"measurement": "duration of GSK3β phosphorylation above basal levels", "setting": "GSK3β", "result": "more than 2 hr"}, {"measurement": "time of peak GSK3β phosphorylation", "setting": "GSK3β", "result": "15 to 30", "unit": "min"}, {"measurement": "time at which GSK3β phosphorylation is prominent", "setting": "GSK3β; Western blotting", "result": 2, "unit": "min"}, {"measurement": "F-actin staining", "setting": "[1]", "result": "rapid enhancement of F-actin staining spatially confined to the cortical cytoskeletal ring"}, {"measurement": "onset of Akt phosphorylation", "setting": "PI-3′ kinase; HGF 20 ng/ml", "result": 2, "unit": "min"}, {"measurement": "time of maximal Akt phosphorylation (plateau)", "setting": "PI-3′ kinase; HGF 20 ng/ml", "result": "5 to 30", "unit": "min"}, {"measurement": "lowest concentration giving Akt activation", "setting": "PI-3′ kinase; HGF 0.5-100 ng/ml, 15 minutes", "result": 5, "unit": "ng/mL"}]}]}
